Data published in patent US20080226596A1, “Therapeutic compositions and methods useful in treating hepatitis” (priority 2006, published 2008).
Entries after “also recorded” stand apart in the source; their conditions may differ.

Experiments:
SHP-1 = target: T1, SHP-1 (Mus musculus, UniProt P29351); assay: In vitro PTPase assay, recombinant GST/SHP-1; assay type: biochemical; conditions: for inhibitory activity against SHP-1: 3-4 μg/ml or 10-100 μg/ml
T1 construct: made in house
Protocol: In vitro PTPase activities were measured using the commercial protein tyrosine phosphatase assay kit (Upstate Biotechnology, Inc. (“UBI”)) following established procedure known to one of skill in the art. This assay measures the in vitro dephosphorylation of a synthetic phosphotyrosine peptide of the sequence Arg-Arg-Leu-Ile-Glu-Asp-Ala-Gle-Tyr-Ala-Ala-Arg-Gly, wherein the tyrosine is phosphorylated (SEQ ID NO: 3). Briefly, 0.01 µg of GST/PTPase fusion proteins was incubated in 50 μL of Tris buffer (10 mM Tris, pH 7.4) containing different concentrations of inhibitors or chemicals (0-1,000 μg/ml) at 22° C. for 10 minutes, followed by addition of 0.2 mM of the phosphotyrosine peptide and incubation at 22° C. for 18 hours. 100 μL of Malachite Green solution was added and incubated for 5 minutes, and the absorbance at 660 nm was measured after 5 minutes.
In vitro PTPase assays were used to determine the effects of compounds on recombinant PTPases, following established procedures using a synthetic phosphotyrosine peptide or DiFMUP as the substrate (Pathak et al., J. Imumol. 167, 3391 (2001)). Briefly, individual PTPases (0.1 µg/reaction) in 50 μL of PTPase buffer (50 mM Tris, pH 7.4) were incubated at 22° C. for 10 minutes or as indicated in the absence or presence of inhibitory compounds. Substrates (0.2 mM phosphotyrosine peptide) were then added and allowed to react at 22° C. for 18 hrs. PTPase activity of individual reactions was measured by adding 100 µL of malachite green solution (UBI) and then quantifying the amounts of free phosphate cleaved by the PTPase from the peptide substrate by spectrometry (OD660 nm). PTPase assays using DiFMUP as a substrate were conducted following a previously described procedure (Matter, et al., Biochem. Biophys. Res. Comm. 283, 1061 (2001)). Relative PTPase activities were calculated based on the formula: (PTPase activity in the presence of an inhibitory compound/PTPase activity in the absence of the compound)× 100%. To assess the reversibility of PTPase inhibition, GST fusion proteins of the PTPases bound on glutathione beads (Pharmacia) were pre-incubated with cold Tris buffer (50 mM Tris, pH 7.0) or Tris buffer containing the inhibitor at 4° C. for 30 minutes. The beads were then washed three times in cold Tris buffer or not washed prior to subjecting to in vitro PTPase assays.
In vitro PTPase assays were used to determine the effects of levamisole (Sigma), pentamidine (American Pharmaceutical Partners, Inc.), and ketoconazole (Sigma) on recombinant PTPases, following established procedures (Pathak et al., J. Imumol. 167, 3391 (2001); Pathak et al., Leukemia 16, 2285 (2002), Yi et al., J. Immunol. 169, 5978 (2002)) using a synthetic phosphotyrosine peptide or DiFMUP as the substrate as detailed above in section I.A.2.

WM9 cells = assay: WM9 melanoma cell growth, MTT assay; assay type: cell-based, human
Protocol: For cell proliferation assays, cells were grown in 10% FCS culture medium containing various amounts of IFNs and/or sodium stibogluconate in 96 well plates and cultured at 37° C. for 3 or 6 days as indicated. The numbers of viable cells in proliferation assays were determined by MTT assays as described in Phatak et al., J. Immunol. 167, 3391 (2001).
Dose response curves were generated for each drug alone, and also the combinations. Median effect plots were generated for IFNs alone, sodium stibogluconate alone, and the combination. The combination index (CI) was determined and plotted vs. fraction affected (FA). Data were analyzed in both modes, mutually exclusive and mutually nonexclusive. The interaction between two mutually nonexclusive drugs is described by the Equation CI=D1/Dx1+D2/Dx2+D1D2/Dx1Dx2, where Dx1 and Dx2 are the doses of drug 1 and drug 2 that are required to inhibit growth x %. […] When CI<1, drugs are synergistic, when CI=1, drugs are additive, and when CI>1, drugs are antagonistic.
Renca (Murphy, G. P., and W. J. Hrushesky. 1973. A murine renal cell carcinoma. J Natl Cancer Inst 50:1013), Jurkat (Gillis, S., and J. Watson. 1980. Biochemical and biological characterization of lymphocyte regulatory molecules. V. Identification of an interleukin 2-producing human leukemia T cell line. J Exp Med 152:1709) and WM9 (Forsberg, K., I. Valyi-Nagy, C. H. Heldin, M. Herlyn, and B. Westermark. 1993. Platelet-derived growth factor (PDGF) in oncogenesis: development of a vascular connective tissue stroma in xenotransplanted human melanoma producing PDGF-BB. Proc Natl Acad Sci USA 90:393) cell lines were obtained from a colleague at the Cleveland Clinic Foundation (CCF) and cultured in RPMI 1640 medium supplemented with 10% fetal calf serum (FCS). […] SSG has been described previously (Yi, T., M. K. Pathak, D. J. Lindner, M. E. Ketterer, C. Farver, and E. C. Borden. 2002. Anticancer activity of sodium stibogluconate in synergy with IFNs. J Immunol 169:5978).
NIH3T3 (Yi, et al., Blood 85, 87 (1995)), WM9 (Forsberg, et al., Proc. Nat. Acad Sci. USA 90, 393 (1993)), DU145 (Mickey, et al., Cancer Res. 37, 4049 (1977)), LoVo (Drewinko, et al., Cancer Res. 36, 467 (1976)), HEY (Buick, et al., Cancer Res. 45, 3668 (1985)), U251 (Yoshida, et al., Cancer 50, 410 (1982)), A549 (Giard, et al., J. Natl. Cancer Inst. 51, 1417 (1973)) and SK-N-SH (Helson, et al., Cancer Res. 35, 2594 (1975)) cell lines have been described and were cultured in RPMI 1640 supplemented with 10% fetal calf serum (FCS). For measurement of sodium stibogluconate effects on cell growth in vitro, cells were cultured in the absence (−) or presence (+) of various amounts of sodium stibogluconate for 6 days with viable cells quantified by MTT assays (Mosmann, J. Immunol. Methods 65, 55 (1983)). Percentages of growth inhibition by sodium stibogluconate were calculated (.+−.x

T1 sequence (P29351 whole entry): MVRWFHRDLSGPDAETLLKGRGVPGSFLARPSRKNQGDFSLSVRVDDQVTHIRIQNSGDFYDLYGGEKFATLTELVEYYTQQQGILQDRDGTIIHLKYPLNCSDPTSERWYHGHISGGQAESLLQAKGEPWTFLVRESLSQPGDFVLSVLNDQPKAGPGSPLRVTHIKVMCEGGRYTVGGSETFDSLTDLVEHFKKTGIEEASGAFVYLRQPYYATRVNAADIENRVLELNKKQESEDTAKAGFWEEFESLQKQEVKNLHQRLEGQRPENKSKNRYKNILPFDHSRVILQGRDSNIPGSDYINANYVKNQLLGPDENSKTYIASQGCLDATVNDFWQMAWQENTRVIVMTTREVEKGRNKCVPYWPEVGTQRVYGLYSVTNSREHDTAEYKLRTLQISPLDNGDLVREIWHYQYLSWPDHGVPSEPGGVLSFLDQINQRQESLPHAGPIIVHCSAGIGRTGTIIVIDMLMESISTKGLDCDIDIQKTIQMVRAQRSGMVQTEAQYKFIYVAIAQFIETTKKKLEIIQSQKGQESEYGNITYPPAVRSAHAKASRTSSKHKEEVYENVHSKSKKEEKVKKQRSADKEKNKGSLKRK

Row | Structure (SMILES) | inhibitory activity against SHP-1 (SHP-1) | IFN-alpha-induced growth inhibition of WM9 with pentamidine (WM9 cells; most obviously at 0.625-1.25 μg/ml) | effect on IFN-alpha activity against WM9 (WM9 cells; ketoconazole 40 μg/ml) | activity against WM9 cells (WM9 cells; ketoconazole 0.625-20 μg/ml, single agent or with IFN-alpha) | SHP-1 phosphatase activity (SHP-1; 10 μg/ml) | WM9 cell growth (WM9 cells; SSG, 6 days, comparable conditions to Renca) | killing of WM9 cells (WM9 cells; single agent, 50 and 100 μg/ml, day 6)
1 | N=C(N)c1ccc(OCCCCCOc2ccc(C(=N)N)cc2)cc1 [pentamidine] | no obvious inhibitory activity | augmented IFN-alpha-induced growth inhibition | – | – | – | – | –
2 | CC(=O)N1CCN(c2ccc(OCC3COC(Cn4ccnc4)(c4ccc(Cl)cc4Cl)O3)cc2)CC1 (centres unmarked) [ketoconazole] | no obvious inhibitory activity | – | minor augmenting effect on IFN-alpha activity | no apparent activity | – | – | –
3 | O.O.O.O.O.O.O.O.O.O=C([O-])[C@@H]1[O][Sb]2([O-])([O][Sb]34([OH])[O][C@H]([C@H](O)CO)[C@H]([O]3)[C@H](C(=O)[O-])[O]4)[O][C@H]([C@H](O)CO)[C@@H]1[O]2.[Na+].[Na+].[Na+] [sodium stibogluconate] | – | – | – | – | almost completely inhibited; also recorded: inactivated SHP-1 | inhibited by SSG in a dose-dependent manner | killed all cells
